Test results as given in PubChem BioAssay (NCI).
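Step 1: Grow cells in 96-well plates. Step 2: Expose to compound for 48 hours at 5 concentrations. Step 3: Interpolate endpoints linearly; if unreached, use highest concentration. The concentration for 50% growth inhibition is given as GI50. TGI marks complete inhibition of growth.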 *1 amine or outer side, *2 acyl side, *3 side chain or, on linkers, in order; H or OH if unused. Where a SMILES comes first, the peptide text is derived from it. Bridges are numbered along the chain shown (N, C = ends). [ ]: non-standard residue; d: D form. The star is where a group is joined. Phe(3-F) = N[C@@H](Cc1cccc(F)c1)C(=O)O; Pro(4R-Me) = C[C@H]1CN[C@H](C(=O)O)C1; aThr = C[C@H](O)[C@H](N)C(=O)O; Pip = O=C(O)[C@@H]1CCCCN1; X8 = CCc1ccc(N*)c(F)c1; CO = O=C([*:1])[*:2]

How the values were obtained:
Assay in all cases: NCI-60 cell line screen, 48 h
786-0 renal = system: 786-0 renal
A498 renal = system: A498 renal
A549 NSCLC = system: A549 NSCLC
ACHN renal = system: ACHN renal
BT-549 breast = system: BT-549 breast
CAKI-1 renal = system: CAKI-1 renal
CCRF-CEM leukemia = system: CCRF-CEM leukemia
COLO 205 colon = system: COLO 205 colon
DU-145 prostate = system: DU-145 prostate
EKVX NSCLC = system: EKVX NSCLC
HCC-2998 colon = system: HCC-2998 colon
HCT-116 colon = system: HCT-116 colon
HCT-15 colon = system: HCT-15 colon
HL-60(TB) leukemia = system: HL-60(TB) leukemia
HOP-62 NSCLC = system: HOP-62 NSCLC
HOP-92 NSCLC = system: HOP-92 NSCLC
HS 578T breast = system: HS 578T breast
HT29 colon = system: HT29 colon
IGROV1 ovarian = system: IGROV1 ovarian
K-562 leukemia = system: K-562 leukemia
KM12 colon = system: KM12 colon
LOX IMVI melanoma = system: LOX IMVI melanoma
M14 melanoma = system: M14 melanoma
MALME-3M melanoma = system: MALME-3M melanoma
MCF7 breast = system: MCF7 breast
MDA-MB-231 breast = system: MDA-MB-231 breast
MDA-MB-435 = system: MDA-MB-435
MOLT-4 leukemia = system: MOLT-4 leukemia
NCI-H226 lung = system: NCI-H226 lung
NCI-H23 lung = system: NCI-H23 lung
NCI-H460 lung = system: NCI-H460 lung
NCI-H522 lung = system: NCI-H522 lung
NCI/ADR-RES ovarian = system: NCI/ADR-RES ovarian
OVCAR-3 ovarian = system: OVCAR-3 ovarian
OVCAR-4 ovarian = system: OVCAR-4 ovarian
OVCAR-5 ovarian = system: OVCAR-5 ovarian
OVCAR-8 ovarian = system: OVCAR-8 ovarian
PC-3 prostate = system: PC-3 prostate
RPMI-8226 leukemia = system: RPMI-8226 leukemia
RXF 393 renal = system: RXF 393 renal
SF-268 CNS = system: SF-268 CNS
SF-295 CNS = system: SF-295 CNS
SF-539 CNS = system: SF-539 CNS
SK-MEL-2 melanoma = system: SK-MEL-2 melanoma
SK-MEL-28 melanoma = system: SK-MEL-28 melanoma
SK-MEL-5 melanoma = system: SK-MEL-5 melanoma
SK-OV-3 ovarian = system: SK-OV-3 ovarian
SN12C renal = system: SN12C renal
SNB-19 CNS = system: SNB-19 CNS
SNB-75 CNS = system: SNB-75 CNS
SR leukemia = system: SR leukemia
SW-620 colon = system: SW-620 colon
T-47D breast = system: T-47D breast
TK-10 renal = system: TK-10 renal
U251 CNS = system: U251 CNS
UACC-257 melanoma = system: UACC-257 melanoma
UACC-62 melanoma = system: UACC-62 melanoma
UO-31 renal = system: UO-31 renal

In the case of CCc1ccc(NC(=O)N[C@@H](Cc2cccc(F)c2)C(=O)N[C@@H]2C(=O)N3CCC[C@H]3C(=O)N3CCCC[C@H]3C(=O)N[C@@H](C)C(=O)N3C[C@H](C)C[C@H]3C(=O)O[C@H]2C)c(F)c1 ({X8-CO}-[Phe(3-F)][aThr]P[Pip]A[Pro(4R-Me)]; ester 2-C), the GI50 (786-0 renal) is reported as 421 nM, the TGI (786-0 renal) is reported as 75200 nM and the GI50 (A498 renal) is reported as 616 nM. For the same compound, the TGI (A498 renal) was 7340 nM, the GI50 (A549 NSCLC) was 509 nM and the TGI (A549 NSCLC) was greater than 79500 nM. For the same compound, the GI50 (ACHN renal) was 503 nM, the TGI (ACHN renal) was greater than 53700 nM and the GI50 (BT-549 breast) was 199 nM. The TGI (BT-549 breast) was 2800 nM, the GI50 (CAKI-1 renal) was 296 nM and the TGI (CAKI-1 renal) was 13500 nM. It also gave a GI50 (CCRF-CEM leukemia) of 252 nM, a TGI (CCRF-CEM leukemia) of 29900 nM and a GI50 (COLO 205 colon) of 180 nM. For the same compound, the TGI (COLO 205 colon) was 511 nM, the GI50 (DU-145 prostate) was 285 nM and the TGI (DU-145 prostate) was greater than 100000 nM. The GI50 (EKVX NSCLC) was 367 nM, the TGI (EKVX NSCLC) was greater than 58100 nM and the GI50 (HCC-2998 colon) was 353 nM. The TGI (HCC-2998 colon) was 2710 nM, the GI50 (HCT-116 colon) was 60.4 nM and the TGI (HCT-116 colon) was 2620 nM. It also gave a GI50 (HCT-15 colon) of 347 nM, a TGI (HCT-15 colon) of 7220 nM and a GI50 (HL-60(TB) leukemia) of 135 nM. It also gave a TGI (HL-60(TB) leukemia) of 1700 nM, a GI50 (HOP-62 NSCLC) of 562 nM and a TGI (HOP-62 NSCLC) greater than 53200 nM. It also gave a GI50 (HOP-92 NSCLC) of 380 nM, a TGI (HOP-92 NSCLC) of 6750 nM and a GI50 (HS 578T breast) of 264 nM. It also gave a TGI (HS 578T breast) of 4580 nM, a GI50 (HT29 colon) of 352 nM and a TGI (HT29 colon) of 2750 nM. It also gave a GI50 (IGROV1 ovarian) of 614 nM, a TGI (IGROV1 ovarian) greater than 47700 nM and a GI50 (K-562 leukemia) of 52.6 nM. It also gave a TGI (K-562 leukemia) greater than 56200 nM, a GI50 (KM12 colon) of 919 nM and a TGI (KM12 colon) of 18000 nM. It also gave a GI50 (LOX IMVI melanoma) of 369 nM, a TGI (LOX IMVI melanoma) of 16200 nM and a GI50 (M14 melanoma) of 214 nM. The TGI (M14 melanoma) was 2090 nM, the GI50 (MALME-3M melanoma) was 464 nM and the TGI (MALME-3M melanoma) was 11400 nM. It also gave a GI50 (MCF7 breast) of 272 nM, a TGI (MCF7 breast) of 19300 nM and a GI50 (MDA-MB-231 breast) of 283 nM. The TGI (MDA-MB-231 breast) was 2270 nM, the GI50 (MDA-MB-435) was 183 nM and the TGI (MDA-MB-435) was 6010 nM. The GI50 (MOLT-4 leukemia) was 594 nM, the TGI (MOLT-4 leukemia) was 18100 nM and the GI50 (NCI-H226 lung) was 351 nM. For the same compound, the TGI (NCI-H226 lung) was 5230 nM, the GI50 (NCI-H23 lung) was 425 nM and the TGI (NCI-H23 lung) was 20200 nM. The GI50 (NCI-H460 lung) was 262 nM, the TGI (NCI-H460 lung) was 12900 nM and the GI50 (NCI-H522 lung) was 182 nM. It also gave a TGI (NCI-H522 lung) of 6820 nM, a GI50 (NCI/ADR-RES ovarian) of 962 nM and a TGI (NCI/ADR-RES ovarian) greater than 51200 nM. The GI50 (OVCAR-3 ovarian) was 337 nM, the TGI (OVCAR-3 ovarian) was 6870 nM and the GI50 (OVCAR-4 ovarian) was 163 nM. For the same compound, the TGI (OVCAR-4 ovarian) was greater than 19900 nM, the GI50 (OVCAR-5 ovarian) was 439 nM and the TGI (OVCAR-5 ovarian) was 4660 nM. It also gave a GI50 (OVCAR-8 ovarian) of 145 nM, a TGI (OVCAR-8 ovarian) greater than 100000 nM and a GI50 (PC-3 prostate) of 191 nM. The TGI (PC-3 prostate) was greater than 100000 nM, the GI50 (RPMI-8226 leukemia) was 55.3 nM and the TGI (RPMI-8226 leukemia) was 4340 nM. The GI50 (RXF 393 renal) was 948 nM, the TGI (RXF 393 renal) was 7960 nM and the GI50 (SF-268 CNS) was 463 nM. For the same compound, the TGI (SF-268 CNS) was 53400 nM, the GI50 (SF-295 CNS) was 270 nM and the TGI (SF-295 CNS) was 1710 nM. The GI50 (SF-539 CNS) was 541 nM, the TGI (SF-539 CNS) was 12600 nM and the GI50 (SK-MEL-2 melanoma) was 243 nM. For the same compound, the TGI (SK-MEL-2 melanoma) was 2020 nM, the GI50 (SK-MEL-28 melanoma) was 589 nM and the TGI (SK-MEL-28 melanoma) was 13100 nM. It also gave a GI50 (SK-MEL-5 melanoma) of 354 nM, a TGI (SK-MEL-5 melanoma) of 1570 nM and a GI50 (SK-OV-3 ovarian) of 583 nM. For the same compound, the GI50 (SN12C renal) was 294 nM, the TGI (SN12C renal) was greater than 57300 nM and the GI50 (SNB-19 CNS) was 218 nM. It also gave a TGI (SNB-19 CNS) greater than 82900 nM, a GI50 (SNB-75 CNS) of 202 nM and a TGI (SNB-75 CNS) of 3590 nM. It also gave a GI50 (SR leukemia) of 380 nM, a TGI (SR leukemia) of 10200 nM and a GI50 (SW-620 colon) of 486 nM. For the same compound, the TGI (SW-620 colon) was greater than 60700 nM, the GI50 (T-47D breast) was 337 nM and the TGI (T-47D breast) was 18900 nM. The GI50 (TK-10 renal) was 608 nM, the TGI (TK-10 renal) was 29100 nM and the GI50 (U251 CNS) was 318 nM. For the same compound, the TGI (U251 CNS) was 31800 nM, the GI50 (UACC-257 melanoma) was 319 nM and the TGI (UACC-257 melanoma) was 5320 nM. The GI50 (UACC-62 melanoma) was 369 nM, the TGI (UACC-62 melanoma) was 10100 nM and the GI50 (UO-31 renal) was 377 nM. For the same compound, the TGI (UO-31 renal) was 16500 nM.
